From patent US9505745B2, “Enhancer of zeste homolog 2 inhibitors” (GlaxoSmithKline Intellectual Property (No.2) Limited, priority 2013, dated 2016) come the findings set out here.

Counter-ions that a name gives are not always drawn.

The target of this assay is EZH2 within the PRC2 complex (Homo sapiens (Human), UniProt Q15910). In words: EZH2 methyltransferase SPA, biotinylated histone H3K27 peptide substrate (Assay Protocol 2). The class given is biochemical. The note with it: 3H-SAM, ≦10 nM approaches limit of detection. Here is the method: Compounds contained herein were evaluated for their ability to inhibit the methyltransferase activity of EZH2 within the PRC2 complex. Human PRC2 complex was prepared by co-expressing each of the 5 member proteins (FLAG-EZH2, EED, SUZ12, RbAp48, AEBP2) in Sf9 cells followed by co-purification. Enzyme activity was measured in a scintillation proximity assay (SPA) where a tritiated methyl group is transferred from 3H-SAM to a lysine residue on a biotinylated, unmethylated peptide substrate derived from histone H3. The peptides were captured on streptavidin-coated SPA beads and the resulting signal was read on a ViewLux plate reader.
EZH2 within the PRC2 complex, sequence (Q15910 whole entry): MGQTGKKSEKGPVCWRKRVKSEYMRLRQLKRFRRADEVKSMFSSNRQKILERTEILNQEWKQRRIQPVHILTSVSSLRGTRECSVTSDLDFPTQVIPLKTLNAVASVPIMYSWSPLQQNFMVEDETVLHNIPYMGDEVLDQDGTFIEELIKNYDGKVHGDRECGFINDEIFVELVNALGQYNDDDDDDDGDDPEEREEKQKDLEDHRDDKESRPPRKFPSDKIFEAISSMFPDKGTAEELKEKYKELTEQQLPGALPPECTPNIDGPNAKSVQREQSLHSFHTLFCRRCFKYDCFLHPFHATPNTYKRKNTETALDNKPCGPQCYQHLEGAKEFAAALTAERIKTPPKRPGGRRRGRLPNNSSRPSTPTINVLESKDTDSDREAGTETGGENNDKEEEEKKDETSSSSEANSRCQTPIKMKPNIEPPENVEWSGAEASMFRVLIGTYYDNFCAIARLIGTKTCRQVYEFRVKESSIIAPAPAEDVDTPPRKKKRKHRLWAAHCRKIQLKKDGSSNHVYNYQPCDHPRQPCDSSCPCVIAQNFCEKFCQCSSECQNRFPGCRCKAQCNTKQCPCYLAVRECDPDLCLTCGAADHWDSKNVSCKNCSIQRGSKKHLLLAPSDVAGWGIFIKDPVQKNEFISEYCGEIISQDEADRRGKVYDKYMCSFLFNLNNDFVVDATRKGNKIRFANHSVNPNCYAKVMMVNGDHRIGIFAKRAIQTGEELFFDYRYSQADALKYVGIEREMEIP
EZH2 within the PRC2 complex, sequence (O75530 whole entry partner): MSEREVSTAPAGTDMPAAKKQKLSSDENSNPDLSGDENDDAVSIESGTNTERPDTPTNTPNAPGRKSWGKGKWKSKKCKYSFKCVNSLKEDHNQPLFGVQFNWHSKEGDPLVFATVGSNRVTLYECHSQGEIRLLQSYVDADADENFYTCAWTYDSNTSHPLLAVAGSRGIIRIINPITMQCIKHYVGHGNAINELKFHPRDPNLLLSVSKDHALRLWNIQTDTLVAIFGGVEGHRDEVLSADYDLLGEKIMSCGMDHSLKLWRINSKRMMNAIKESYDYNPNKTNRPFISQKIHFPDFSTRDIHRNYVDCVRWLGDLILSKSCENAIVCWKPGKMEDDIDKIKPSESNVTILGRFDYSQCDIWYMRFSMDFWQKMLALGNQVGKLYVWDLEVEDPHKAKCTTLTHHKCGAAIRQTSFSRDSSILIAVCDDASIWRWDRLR
EZH2 within the PRC2 complex, sequence (Q15022 whole entry partner): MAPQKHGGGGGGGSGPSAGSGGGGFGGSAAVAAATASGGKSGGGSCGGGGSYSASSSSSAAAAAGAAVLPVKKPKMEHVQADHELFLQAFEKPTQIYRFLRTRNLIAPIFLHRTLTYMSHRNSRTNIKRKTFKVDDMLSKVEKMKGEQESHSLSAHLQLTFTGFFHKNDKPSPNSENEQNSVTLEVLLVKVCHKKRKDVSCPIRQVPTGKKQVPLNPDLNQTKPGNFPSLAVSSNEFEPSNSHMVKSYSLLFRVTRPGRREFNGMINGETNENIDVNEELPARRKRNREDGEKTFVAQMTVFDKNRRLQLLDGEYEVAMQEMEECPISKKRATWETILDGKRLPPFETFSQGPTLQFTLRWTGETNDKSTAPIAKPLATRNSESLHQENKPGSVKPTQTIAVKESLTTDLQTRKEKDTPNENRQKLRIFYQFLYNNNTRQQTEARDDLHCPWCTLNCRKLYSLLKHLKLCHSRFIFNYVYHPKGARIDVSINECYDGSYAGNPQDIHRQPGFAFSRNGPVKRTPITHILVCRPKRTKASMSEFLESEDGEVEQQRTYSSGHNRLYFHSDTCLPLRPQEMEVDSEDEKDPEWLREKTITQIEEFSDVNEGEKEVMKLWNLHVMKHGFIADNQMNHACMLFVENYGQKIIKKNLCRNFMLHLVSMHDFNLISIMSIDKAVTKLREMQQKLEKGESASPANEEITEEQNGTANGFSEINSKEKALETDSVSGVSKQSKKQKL
EZH2 within the PRC2 complex, sequence (Q09028 whole entry partner): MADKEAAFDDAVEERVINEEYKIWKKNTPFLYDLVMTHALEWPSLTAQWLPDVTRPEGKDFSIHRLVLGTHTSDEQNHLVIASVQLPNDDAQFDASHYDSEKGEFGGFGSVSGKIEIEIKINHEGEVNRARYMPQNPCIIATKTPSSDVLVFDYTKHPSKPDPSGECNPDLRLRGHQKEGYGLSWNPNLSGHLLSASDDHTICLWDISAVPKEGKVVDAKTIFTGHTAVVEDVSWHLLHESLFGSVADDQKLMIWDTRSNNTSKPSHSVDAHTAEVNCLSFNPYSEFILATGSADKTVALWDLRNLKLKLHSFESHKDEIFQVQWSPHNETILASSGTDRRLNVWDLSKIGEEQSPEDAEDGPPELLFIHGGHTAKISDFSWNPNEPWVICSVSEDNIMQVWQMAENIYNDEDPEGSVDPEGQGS
EZH2 within the PRC2 complex, sequence (Q6ZN18 whole entry partner): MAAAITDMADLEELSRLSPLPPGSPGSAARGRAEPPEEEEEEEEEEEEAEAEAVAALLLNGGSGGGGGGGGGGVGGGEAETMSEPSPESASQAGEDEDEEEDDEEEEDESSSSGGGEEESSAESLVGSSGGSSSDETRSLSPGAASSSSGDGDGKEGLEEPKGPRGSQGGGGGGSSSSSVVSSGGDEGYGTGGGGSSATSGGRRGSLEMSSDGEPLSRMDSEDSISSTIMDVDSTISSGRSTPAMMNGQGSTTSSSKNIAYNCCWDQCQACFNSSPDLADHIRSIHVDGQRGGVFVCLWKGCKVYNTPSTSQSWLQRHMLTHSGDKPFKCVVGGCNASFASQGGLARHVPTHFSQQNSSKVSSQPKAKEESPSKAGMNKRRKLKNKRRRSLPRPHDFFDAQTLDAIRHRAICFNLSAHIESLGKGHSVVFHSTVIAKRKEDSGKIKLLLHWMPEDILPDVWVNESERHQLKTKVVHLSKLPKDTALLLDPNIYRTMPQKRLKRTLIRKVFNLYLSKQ
Part A. Compound Preparation
• 4. Prepare 10 mM stock of compounds from solid in 100% DMSO. • 5. Set up an 11-point serial dilution (1:4 dilution, top concentration 10 mM) in 100% DMSO for each test compound in a 384 well plate leaving columns 6 and 18 for DMSO controls. • 6. Dispense 10 nL of compound from the dilution plate into reaction plates (Corning, 384-well polystyrene NBS, Cat#3673). Part B. Reagent Preparation Prepare the following solutions: • 7. 1× Base Buffer, 50 mM Tris-HCl, pH 8, 2 mM MgCl2: Per 1 L of base buffer, combine 1 M Tris-HCl, pH 8 (50 mL), 1 M MgCl2 (2 mL), and distilled water (948 mL). • 8. 1× Assay Buffer: Per 10 mL of 1× Assay Buffer, combine 1× Base Buffer (9.96 mL), 1 M DTT (40 uL), and 10% Tween-20 (1 uL) to provide a final concentration of 50 mM Tris-HCl, pH 8, 2 mM MgCl2, 4 mM DTT, 0.001% Tween-20. • 9. 2× Enzyme Solution: Per 10 mL of 2× Enzyme Solution, combine 1× Assay Buffer (9.99 mL) and 3.24 uM EZH2 5 member complex (6.17 uL) to provide a final enzyme concentration of 1 nM. • 10. SPA Bead Solution: Per 1 mL of SPA Bead Solution, combine Streptavidin coated SPA beads (PerkinElmer, Cat#RPNQ0261, 40 mg) and 1× Assay Buffer (1 mL) to provide a working concentration of 40 mg/mL. • 11. 2× Substrate Solution: Per 10 mL of 2× Substrate Solution, combine 40 mg/mL SPA Bead Solution (375 uL), 1 mM biotinylated histone H3K27 peptide (200 uL), 12.5 uM 3H-SAM (240 uL; 1 mCi/mL), 1 mM cold SAM (57 uL), and 1× Assay Buffer (9.13 mL) to provide a final concentration of 0.75 mg/mL SPA Bead Solution, 10 uM biotinylated histone H3K27 peptide, 0.15 uM 3H-SAM (˜12 uCi/mL 3H-SAM), and 2.85 uM cold SAM. • 12. 2.67× Quench Solution: Per 10 mL of 2.67× Quench Solution, combine 1× Assay Buffer (9.73 mL) and 10 mM cold SAM (267 uL) to provide a final concentration of 100 uM cold SAM. Part C. Assay Reaction in 384-well Grenier Bio-One Plates Compound Addition • 3. Stamp 10 nL/well of 1000× Compound to test wells (as noted above). • 4. Stamp 10 nL/well of 100% DMSO to columns 6 & 18 (high and low controls, respectively). Assay • 10. Dispense 5 uL/well of 1× Assay Buffer to column 18 (low control reactions). • 11. Dispense 5 uL/well of 2× Substrate Solution to columns 1-24 (note: substrate solution should be mixed to ensure homogeneous bead suspension before dispensing into matrix reservoir). • 12. Dispense 5 uL/well of 2× Enzyme Solution to columns 1-17, 19-24. • 13. Incubate the reaction for 60 min at room temperature. Quench • 5. Dispense 6 uL/well of the 2.67× Quench Solution to columns 1-24. • 6. Seal assay plates and spin for ˜1 min at 500 rpm. • 7. Dark adapt plates in the ViewLux instrument for 15-60 min. Read plates • 2. Read the assay plates on the Viewlux Plate Reader utilizing the 613 nm emission filter or clear filter (300 s exposure). Reagent addition can be done manually or with automated liquid handler. Results
Percent inhibition was calculated relative to the DMSO control for each compound concentration and the resulting values were fit using standard IC50 fitting parameters within the ABASE data fitting software package.

Turning to `CCC(c1scc(C(=O)NCc2c(C)cc(C)[nH]c2=O)c1C)[C@H]1CC[C@H](N(C)C)CC1` (single isomer, unassigned; (+)) [Example 45, (+)-N-((4,6-Dimethyl-2-oxo-1,2-dihydropyridin-3-yl)methyl)-5-(1-((trans)-4-(dimethylamino)cyclohexyl)propyl)-4-methylthiophene-3-carboxamide], the concentration for half-maximal inhibition (IC50) was at most 10 nM.

In turn, `CCC(c1scc(C(=O)NCc2c(C)cc(C)[nH]c2=O)c1C)[C@H]1CC[C@@H](N(C)C)CC1` (single isomer, unassigned; (+)) [Example 46, (+)-N-((4,6-Dimethyl-2-oxo-1,2-dihydropyridin-3-yl)methyl)-5-(1-((cis)-4-(dimethylamino)cyclohexyl)propyl)-4-methylthiophene-3-carboxamide] displayed an IC50 of 316 nM.

As for `CCC(c1scc(C(=O)NCc2c(C)cc(C)[nH]c2=O)c1C)[C@H]1CC[C@H](N(C)C)CC1` (single isomer, unassigned; (-)) [Example 44, (−)-N-((4,6-Dimethyl-2-oxo-1,2-dihydropyridin-3-yl)methyl)-5-(1-((trans)-4-(dimethylamino)cyclohexyl)propyl)-4-methylthiophene-3-carboxamide], it took 20 nM to reach half-maximal inhibition (IC50).

The compound `CCC(c1scc(C(=O)NCc2c(C)cc(C)[nH]c2=O)c1C)[C@H]1CC[C@@H](N(C)C)CC1` (single isomer, unassigned; (-)) [Example 47, (−)-N-((4,6-Dimethyl-2-oxo-1,2-dihydropyridin-3-yl)methyl)-5-(1-((cis)-4-(dimethylamino)cyclohexyl)propyl)-4-methylthiophene-3-carboxamide] displayed a half-maximal inhibitory concentration (IC50) of 13 nM.

`C/C=C(/c1scc(C(=O)NCc2c(C)cc(C)[nH]c2=O)c1C)C1CCNCC1` [Example 33, (E)-N-((4,6-Dimethyl-2-oxo-1,2-dihydropyridin-3-yl)methyl)-4-methyl-5-(1-(piperidin-4-yl)prop-1-en-1-yl)thiophene-3-carboxamide] returned an IC50 of at most 10 nM.

In turn, `C/C=C(/c1scc(C(=O)NCc2c(C)cc(C)[nH]c2=O)c1C)[C@H]1CC[C@H](NC(=O)OC(C)(C)C)CC1` [Example 34, tert-Butyl ((trans)-4-((E)-1-(4-(((4,6-dimethyl-2-oxo-1,2-dihydropyridin-3-yl)methyl)carbamoyl)-3-methylthiophen-2-yl)prop-1-en-1-yl)cyclohexyl)carbamate] had an IC50 of 100 nM.

In the case of `C/C=C(/c1scc(C(=O)NCc2c(C)cc(C)[nH]c2=O)c1C)[C@H]1CC[C@H](N)CC1` [Example 35, 5-((E)-1-((trans)-4-Aminocyclohexyl)prop-1-en-1-yl)-N-((4,6-dimethyl-2-oxo-1,2-dihydropyridin-3-yl)methyl)-4-methylthiophene-3-carboxamide], the IC50 is 13 nM.

For `Cc1cc(C)c(CNC(=O)c2csc(C(O)[C@H]3CC[C@H](N)CC3)c2C)c(=O)[nH]1` (stereo partly drawn) [Example 37, 5-(((trans)-4-Aminocyclohexyl)(hydroxy)methyl)-N-((4,6-dimethyl-2-oxo-1,2-dihydropyridin-3-yl)methyl)-4-methylthiophene-3-carboxamide], it took 501 nM to reach half-maximal inhibition (IC50).

`Cc1cc(C)c(CNC(=O)c2csc(C(O)[C@H]3CC[C@H](N(C)C)CC3)c2C)c(=O)[nH]1` (stereo partly drawn) [Example 38, N-((4,6-dimethyl-2-oxo-1,2-dihydropyridin-3-yl)methyl)-5-(((trans)-4-(dimethylamino)cyclohexyl)(hydroxy)methyl)-4-methylthiophene-3-carboxamide]: half-maximal inhibition (IC50) required 158 nM.

Consider `CCC(c1scc(C(=O)NCc2c(C)cc(C)[nH]c2=O)c1C)C1CCN(C(=O)OC(C)(C)C)CC1` (centres unmarked) [Example 39, tert-Butyl 4-(1-(4-(((4,6-dimethyl-2-oxo-1,2-dihydropyridin-3-yl)methyl)carbamoyl)-3-methylthiophen-2-yl)propyl)piperidine-1-carboxylate], for which inhibition was half-maximal at 50 nM (IC50).

The compound `CCC(c1scc(C(=O)NCc2c(C)cc(C)[nH]c2=O)c1C)C1CCNCC1` (centres unmarked) [Example 40, N-((4,6-Dimethyl-2-oxo-1,2-dihydropyridin-3-yl)methyl)-4-methyl-5-(1-(piperidin-4-yl)propyl)thiophene-3-carboxamide] displayed a half-inhibitory concentration (IC50) of 20 nM.

Compound `CC[C@@H](c1scc(C(=O)NCc2c(C)cc(C)[nH]c2=O)c1C)N1CCC(N(C)C)CC1` [Example 41, (S)-(−)-N-((4,6-Dimethyl-2-oxo-1,2-dihydropyridin-3-yl)methyl)-5-(1-(4-(dimethylamino)piperidin-1-yl)propyl)-4-methylthiophene-3-carboxamide] returned a half-inhibitory concentration (IC50) of 20 nM.

On to `CC[C@H](c1scc(C(=O)NCc2c(C)cc(C)[nH]c2=O)c1C)N1CCC(N(C)C)CC1` [Example 42, (R)-(+)-N-((4,6-dimethyl-2-oxo-1,2-dihydropyridin-3-yl)methyl)-5-(1-(4-(dimethylamino)piperidin-1-yl)propyl)-4-methylthiophene-3-carboxamide], for which the 50% inhibitory concentration (IC50) turned out to be 316 nM.

`CCC(c1scc(C(=O)NCc2c(C)cc(C)[nH]c2=O)c1C)[C@H]1CC[C@H](N)CC1` (stereo partly drawn) [Example 43, 5-(1-((trans)-4-Aminocyclohexyl)propyl)-N-((4,6-dimethyl-2-oxo-1,2-dihydropyridin-3-yl)methyl)-4-methylthiophene-3-carboxamide] had an IC50 of 16 nM.

For `CCC(=C1CCNCC1)c1scc(C(=O)NCc2c(C)cc(C)[nH]c2=O)c1C` [Example 48, N-((4,6-dimethyl-2-oxo-1,2-dihydropyridin-3-yl)methyl)-4-methyl-5-(1-(piperidin-4-ylidene)propyl)thiophene-3-carboxamide], the IC50 is at most 10 nM.

`C=C(c1scc(C(=O)NCc2c(C)cc(C)[nH]c2=O)c1C)C1CCNCC1` [Example 49, N-((4,6-dimethyl-2-oxo-1,2-dihydropyridin-3-yl)methyl)-4-methyl-5-(1-(piperidin-4-yl)vinyl)thiophene-3-carboxamide]: inhibition was half-maximal at 126 nM (IC50).

The compound `CCN(c1sc(Br)c(C(=O)NCc2c(C)cc(C)[nH]c2=O)c1C)[C@H]1CC[C@H](N(C)C)CC1` [Example 50, 2-Bromo-N-((4,6-dimethyl-2-oxo-1,2-dihydropyridin-3-yl)methyl)-5-(((trans)-4-(dimethylamino)cyclohexyl)(ethyl)amino)-4-methylthiophene-3-carboxamide hydrochloride] gave an IC50 of 20 nM.

Compound `CCN(c1sc(C#N)c(C(=O)NCc2c(C)cc(C)[nH]c2=O)c1C)[C@H]1CC[C@H](N(C)C)CC1` [Example 51, 2-Cyano-N-((4,6-dimethyl-2-oxo-1,2-dihydropyridin-3-yl)methyl)-5-(((trans)-4-(dimethylamino)cyclohexyl)(ethyl)amino)-4-methylthiophene-3-carboxamide] returned an IC50 of 25 nM.

The compound `CCN(CC)c1sc(Br)c(C(=O)NCc2c(C)cc(C)[nH]c2=O)c1C` [Example 52, 2-Bromo-5-(diethylamino)-N-((4,6-dimethyl-2-oxo-1,2-dihydropyridin-3-yl)methyl)-4-methylthiophene-3-carboxamide] yielded a concentration for half-maximal inhibition (IC50) of 316 nM.

The compound `CCN(c1sc(Cl)c(C(=O)NCc2c(C)cc(C)[nH]c2=O)c1C)C1CCOCC1` [Example 53, 2-Chloro-N-((4,6-dimethyl-2-oxo-1,2-dihydropyridin-3-yl)methyl)-5-(ethyl(tetrahydro-2H-pyran-4-yl)amino)-4-methylthiophene-3-carboxamide] showed a half-maximal inhibitory concentration (IC50) of 16 nM.
